Key:
[1] = tested on: formalin induced pain; assay: formalin-induced pain; details: s.c., 30 min before formalin injection in the paw
[2] = tested on: sodium current of DRG neurons; assay: whole cell patch clamp, sodium currents in DRG neurons; format: cell-based, rat
[3] = volunteers, tablets of 900 mg of trimebutine, oral
[4] = tested on: streptozocin-induced hyperalgesia; assay: streptozocin-induced diabetic rats, tail immersion test; format: in vivo, rat; details: single dose 30 mg/kg s.c., 30 min or 60 min before tail immersion test, water 44° C.
Description: FIG. 9: Effect of TMB in diabetic rats.
Test is carried out with male Sprague Dawley rats (Iffa-Credo) weighing 160-180 grams on arrival. […] Food and water are provided ad libidum.
Animals are intraperitoneally injected with streptozocin 75 mg/kg. Control animals are given vehicle in the same conditions. Diabetes are confirmed once a week after injection by measurement of tail vein blood glucose levels with Boehriger glycemnia test. Only animals with a final glucose level[…] are included in the study.
The tail of the rat is immersed in a water bath at 44° C. Nociceptive reaction is defined as the reaction time (seconds) before the tail withdrawal. Results are expressed as the mean+/−SEM and analysed by a Student's t test after an analysis of variance (Anova one way)

[5] = tested on: unilateral peripheral mononeuropathy; assay: rat mononeuropathy, vocalization threshold to paw pressure

CCC(COC(=O)c1cc(OC)c(OC)c(OC)c1)(NC)c1ccccc1 (stereo not drawn) [Nor-TMB, N-desmethyl trimebutine]
ED50, formalin induced pain [1]: 17 mg/kg

CCC(COC(=O)c1cc(OC)c(OC)c(OC)c1)(c1ccccc1)N(C)C.O=C(O)/C=C\C(=O)O (racemic) [trimebutine, 2-dimethylamino-2-phenylbutyl 3,4,5-trimethoxybenzoate hydrogen maleate]
unblocking rate koff [2]: 29 10^−3 s^−1 | time constant τoff of recovery from block ([2]; n=6): 34 ± 4 s | time of maximal plasma concentrations [3]: 1 h

CC[C@](COC(=O)c1cc(OC)c(OC)c(OC)c1)(NC)c1ccccc1 [(S)-Nor-TMB, (S)-N-desmethyl trimebutine]
reaction time of tail withdrawal [4]: the same as in control (non diabetic) rats | antinociceptive effect in terms of amplitude and duration of action ([5]; 3 and 10 mg/kg s.c.): superior to that of morphine at 1 mg/kg i.v. | antinociceptive effect in the contralateral paw ([5]; s.c.): only at the highest dose (10 mg/kg) | dose from which increase of the vocalization pressure threshold is present ([5]; s.c.): ≥ 1 mg/kg | antinociceptive effect in the nerve-injured paw ([5]; s.c., three doses): significant at all the three doses tested

From patent US6353024B1, “Method for preventing and treating arthritis, osteo-traumatic pain, and neuralgias with trimebutine” (Warner-Lambert Company, priority 2000, dated 2002)
